Reference: the NIST ThermoML archive (doi:10.1016/j.tca.2006.03.023)
± gives the expanded uncertainty stated by the source.

Settings: 298 K; 101.33 kPa; Crystal; X-ray diffraction

Row | mass density | Compound
1 | 1428 ± 2 kg/m3 | O=P([O-])([O-])[O-].[Sm+3] [samarium phosphate]
2 | 1476 ± 2 kg/m3 | O=P([O-])([O-])[O-].[Eu+3] [europium phosphate]
